We go through one compound from publication PMC12656239, “Aryl Hydrocarbon Receptor-Mediated Disruption of Intestinal Epithelial Barrier Integrity by Dioxin Isomers” (Toxics, 2025).

The assay has as its target aryl hydrocarbon receptor (AhR) (Homo sapiens, UniProt P35869). In words: EROD induction in Caco-2 cells (endogenous AhR), abolished by AhR antagonist. In kind it is cell-based.

As for `Clc1cc2c(cc1Cl)Oc1cc(Cl)c(Cl)cc1O2` [2,3,7,8-TCDD, 2,3,7,8-tetrachlorodibenzo-p-dioxin], the 50% effective concentration (EC50) is 0.102 nM.
